Reference: patent publication US11685766B2, “14-3-3 targeting peptides for cancer treatment” (Creighton University, priority 2019, dated 2023)
“Also recorded” adds a separate entry of the source. Peptide text beside a SMILES is read from it.

Tests used:
[1] = system: normal human epidermal keratinocytes (nHEK); experiment: Neutral Red Cell Viability assay in normal keratinocytes; type: cell-based; conditions: FIG. 1A dashed line
Method: Human skin cancer cell lines (SCC12B.2, SCC13, SRB12) were maintained in Dulbecco's modified Eagle's medium (DMEM) (Invitrogen, Carlsbad, Calif., USA) supplemented with 1% penicillin (10 000 U/ml)-streptomycin (10 000 μg/ml) (PenStrep) (Invitrogen) and 10% fetal bovine serum (Gemini Bio-Products, Sacramento, Calif., USA) at 37° C. and 5% CO2. Normal human epidermal keratinocytes (nHEK) (Thermo Scientific, Waltham, Mass., USA) isolated from neonatal foreskin were cultured in EpiLife medium (Invitrogen) supplemented with human keratinocyte growth supplement (Invitrogen) and 1% PenStrep (Invitrogen). […]
To determine the half maximal inhibitory concentration (IC50) for ES1P2 in SCC12B.2 and nHEK cells, cells were plated in a 96-well plate at a density of 6×10^3 cells/well. […] Neutral Red Cell Viability assays were performed, where absorbance was measured using a Cytation 5 multi-mode plate reader (BioTek). […]

14-3-3ε protein = molecular target: T1, 14-3-3ε protein (Homo sapiens, UniProt P62258); experiment: Differential scanning fluorimetry (DSF) binding; conditions: 7 μM 14-3-3ε, ΔTm vs peptide concentration, Hill fit; read-out: Kd, binding affinity to 14-3-3ε protein (DSF)
T1 sequence (P62258 1-255): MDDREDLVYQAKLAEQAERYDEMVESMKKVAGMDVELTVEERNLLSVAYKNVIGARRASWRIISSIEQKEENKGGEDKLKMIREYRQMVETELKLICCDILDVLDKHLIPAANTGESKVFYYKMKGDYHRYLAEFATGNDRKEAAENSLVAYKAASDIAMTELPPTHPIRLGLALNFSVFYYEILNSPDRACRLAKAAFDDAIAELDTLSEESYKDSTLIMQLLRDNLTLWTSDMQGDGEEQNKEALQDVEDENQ
Method: Differential scanning fluorimetry (DSF) experiments were performed using BioRad CFX384 Real-Time qPCR attached with C1000 Touch Thermo Cycler in the FRET channel. 7 μM subunits of 14-3-3ε protein, ten molar excess of Sypro Orange and 20 mM Tris-HCl, pH 7.4 assay buffer were used in all the melting experiments. Stock solution of peptides were prepared by dissolving 1 mg of lyophilized peptides in 20 mM Tris, pH 7.4 buffer and 0.1 μM to 200 μM dilution series were prepared. Protein melting experiments were performed both in the absence and the presence of increasing concentration of peptides. 15 μL of each samples (in triplicate) were put into each well of a 384-well white PCR plate and sealed with optical adhesive sealer (BioRad MSB-1001) and any air-bubble in the solutions were removed by spinning the plate vertically with PCR plate spinner (Labnet MPS 1000) at 1000 RPM for 3 minutes. The temperature was increased from 25° C. to 95° C. at a rate of 0.7° C. per minute. Melting temperatures of each well were determined using the CFX Maestro software version 2.0 by plotting the first derivative of fluorescence signal against temperature. All the measurements were performed in triplicate and the deviations of melting temperatures (ΔTm) presented for each samples were calculated relatively to three control samples (7 μM 14-3-3ε in the absence of the peptide). Binding constant (Kd) for each peptide was calculated by plotting ΔTm against peptide concentration and data points were fitted with Hill's equation using GraphPad 9.0 software.

In the case of `NCCCC[C@H](NC(=O)[C@H](Cc1c[nH]c2ccccc12)NC(=O)[C@H](Cc1ccc(O)cc1)NC(=O)[C@@H](N)Cc1c[nH]c2ccccc12)C(N)=O` [ES1P2, Trp-Tyr-Trp-Lys-NH2] (H-WYWK-NH2), the “toxicity to normal keratinocytes” value [1] is reported as “killed SCC cells but not normal keratinocytes; also recorded: nontoxic”.

With `CSCC[C@H](NC(=O)[C@H](CCCNC(=N)N)NC(=O)[C@@H]1CCCN1C(=O)[C@H](C)NC(=O)[C@H](COP(=O)(O)O)NC(=O)[C@H](CC(N)=O)NC(=O)[C@H](CCC(N)=O)NC(=O)[C@H](CCCNC(=N)N)NC(=O)[C@H](CCC(N)=O)NC(=O)[C@@H](NC(C)=O)[C@@H](C)O)C(=O)N[C@@H](CC(C)C)C(=O)N[C@@H](CO)C(=O)N[C@@H](CO)C(=O)N[C@@H](CC(N)=O)C(N)=O` [pS, Ac-Thr-Gln-Arg-Gln-Asn-Ser-(PO3^2−)-Ala-Pro-Arg-Met-Leu-Ser-Ser-Asn-NH2] (HELM PEPTIDE1{[ac].T.Q.R.Q.N.[O=C([C@H](COP(=O)(O)O)N[*:1])[*:2]].A.P.R.M.L.S.S.N.[am]}$$$$V2.0) the Kd (14-3-3ε protein) was 11.2 µM.

In the case of `CC(=O)N[C@@H](CCCNC(=N)N)C(=O)N[C@H](C(=O)N[C@@H](CCCCN)C(=O)N[C@@H](CO)C(=O)N[C@@H](CCCNC(=N)N)C(=O)N[C@H](C(=O)N[C@@H](Cc1c[nH]c2ccccc12)C(=O)N[C@@H](C)C(=O)NCC(=O)N[C@@H](CCC(=O)O)C(=O)N[C@@H](CCCCN)C(=O)N[C@@H](CO)C(=O)N[C@@H](CCCCN)C(=O)N[C@@H](CCCNC(=N)N)C(N)=O)[C@@H](C)OP(=O)(O)O)[C@@H](C)O` [pT, Ac-Arg-Thr-Lys-Ser-Arg-Thr(PO3^2−)-Trp-Ala-Gly-Glu-Lys-Ser-Lys-Arg-NH2] (HELM PEPTIDE1{[ac].R.T.K.S.R.[C[C@@H](OP(=O)(O)O)[C@H](N[*:1])C(=O)[*:2]].W.A.G.E.K.S.K.R.[am]}$$$$V2.0), the Kd (14-3-3ε protein) is reported as 3.64 µM.
